What was measured:
HEK293/EBNA cells = experiment: IP accumulation (IP-One HTRF) in untransduced HEK-293/EBNA cells; format: cell-based
β2-AR [1] = molecular target: T1, β2-AR (Homo sapiens, UniProt P07550); experiment: cAMP accumulation in untransduced HEK-293/EBNA cells; format: cell-based; conditions: HEK293/EBNA
T1 construct: HEK-293/EBNA cells are known to express β2-AR endogenously; endogenous in cells; host or cells: HEK-293/EBNA (untransduced or negative-control transduced)

β2-AR [2] = molecular target: T1, β2-AR; experiment: MAPK activation (AlphaScreen SureFire p-ERK) in untransduced HEK-293/EBNA cells; format: cell-based; conditions: HEK293/EBNA
β2-AR [3] = molecular target: T1, β2-AR; conditions: HEK293/EBNA; [125I-CYP] used as radioligand (footnote 1a); cited from earlier work
β2-AR [4] = molecular target: T1, β2-AR; conditions: HEK293/EBNA; read-out: EC50 Ca2+; cited from earlier work
α1A-AR [5] = molecular target: T2, α1A-AR (Homo sapiens, UniProt P35348); experiment: LC-MS detection of IP1, IP2 and IP3 in α1A-AR_CHO stable cells; format: cell-based; parameters: expressed in transfected cells; conditions: α1A-AR CHO, Iso up to 1 mM
T2 sequence (P35348 1-466): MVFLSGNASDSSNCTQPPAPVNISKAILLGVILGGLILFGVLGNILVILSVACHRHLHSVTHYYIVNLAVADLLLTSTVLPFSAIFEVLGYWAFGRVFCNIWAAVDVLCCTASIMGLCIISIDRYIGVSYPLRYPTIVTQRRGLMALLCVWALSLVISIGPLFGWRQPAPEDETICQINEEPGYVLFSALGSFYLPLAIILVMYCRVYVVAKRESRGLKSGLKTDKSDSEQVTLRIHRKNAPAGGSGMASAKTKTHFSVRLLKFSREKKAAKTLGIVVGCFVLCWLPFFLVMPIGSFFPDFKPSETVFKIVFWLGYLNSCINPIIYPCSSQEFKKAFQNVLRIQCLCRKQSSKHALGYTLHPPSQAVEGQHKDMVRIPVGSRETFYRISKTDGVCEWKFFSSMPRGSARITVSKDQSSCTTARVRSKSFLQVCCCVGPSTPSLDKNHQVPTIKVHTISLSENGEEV
Description: (§1) After that, the medium was replaced with agonist solution in assay buffer (20 mM HEPES, 10 mM glucose, 1.8 mM CaCl2, 0.5 mM MgSO4, in HBSS 1X buffer, 50 mM LiCl) and cells were incubated at 37°C for 30 min. Stimulation was stopped by exchange of assay buffer with lysis buffer (100 μL 0.1N HCl/MeOH), and lysis proceeded for 30 min at 4°C. Cellular levels of inositol phosphates were determined using a Thermo LC-MS detection system following a published protocol. Chromatography was performed employing a BioBasic column AX (50 × 2.1 mm, Thermo). The mobile phase consisted of solvent A: 10 mM ammonium acetate, pH 6 in 30/70 acetonitrile/water, and solvent B: 1 mM ammonium acetate, pH 11 in 30/70 acetonitrile/water. A gradient solvent system was used starting with 0% solvent B, and analytes were eluted by increasing solvent B to 100% over 3 min. Each data point represents the average of triplicate determinations and each experiment was performed at least three times independently.
IP1, IP2, and IP3 levels were determined via LC-MS. Plots are representative of three independent experiments with each data point being the average of triplicates.

α1A-AR [6] = molecular target: T2, α1A-AR; experiment: MAPK activation (AlphaScreen SureFire p-ERK) in α1A-AR transduced HEK-293/EBNA cells; format: cell-based; parameters: expressed in transfected cells; host or cells: HEK-293/EBNA (baculovirus transduction, NaBu induction); conditions: α1A-AR transduced HEK-293/EBNA
Description: Prior to experiments, cells were transduced with baculovirus strains designed for transient expression of α1A-AR or aldehyde oxidase (negative control). This was performed by incubating cells with virus (MOI 100–150) for 3 to 4 h, followed by exchange into fresh serum free growth medium supplemented with 4 mM sodium butyrate (NaBu). Cells were grown for another 14 to 18 h and then examined for agonist-evoked responses in transient Ca^2+ release, IP accumulation or pERK activation assays. The surface receptor expression density was determined by flow cytometry via immunofluorescence labeling of an N-terminal HA epitope tag on the receptor and radioligand binding in partially purified membranes.
Graphs shown reflect either pooled or representative data (see figure legends). For concentration-response analysis, results from Ca^2+ mobilization experiments were plotted as ΔF/F0 vs. agonist concentration and fit to a sigmoidal concentration-response equation using the GraphPad Prism software package. […] For radioligand binding experiments, B max values were calculated from maximum binding using the equation B max = (SB × ([…] + [L])/[L]), where SB is the specific binding expressed as fmol per mg of membrane protein, and [L] is the ligand concentration.

α1A-AR [7] = molecular target: T2, α1A-AR; experiment: LC-MS detection of IP1, IP2 and IP3 in α1A-AR transduced HEK-293/EBNA cells; format: cell-based; parameters: expressed in transfected cells; host or cells: HEK-293/EBNA (baculovirus transduction, NaBu induction); conditions: Iso up to 10 mM
Description: as §1, with “Virally transduced HEK-293/EBNA cells were resuspended in growth medium and seeded in poly-D-lysine coated 96-well black plates at a density of 100,000 cells/0.1 mL per well, Cells were allowed to attach for 2 hours at 37°C in a humidified atmosphere of 95% air and 5% CO2. After” for “After”

α1A-AR [8] = molecular target: T2, α1A-AR; experiment: Translocation of GFP-tagged β-arrestin-1/2 in HEK293 cells expressing FLAG-α1A-AR (confocal microscopy); format: cell-based; parameters: expressed in transfected cells; host or cells: HEK-293/EBNA (baculovirus transduction, NaBu induction); conditions: HEK293, 1 μM A-61603 or 1 mM Iso
Description: HEK293 cells were transiently co-transfected with FLAG-tagged α1A – AR and one of the following GFP-tagged proteins: Rab5 (Rab5 Q79L) variant, Rab11 (Rab11 S25N) variant, β-arrestin-1 or β-arrestin-2. Rab5 and Rab11 were kindly provided by Dr. Marino Zerial (Max Planck Institute of Molecular Cell Biology and Genetics, Dresden, Germany). […] After treatment, cells were fixed with freshly prepared 3.7% paraformaldehyde in PBS for 15 min at room temperature. Subsequently, cells were permeabilized with 0.1% Triton X-100 (Sigma-Aldrich) in PBS for 5 min, followed by nonspecific binding site blocking with 3% normal serum (Santa Cruz Biotechnology) in PBS for 1 h. Incubation with Alexa Fluor-568 conjugated anti-FLAG antibodies in blocking solution was done as directed by the manufacturer. Confocal microscopy was performed using a Zeiss LSM 510 META laser scanning microscope (Carl Zeiss, Inc., Thornwood, NY) equipped with a 60X objective, using the following laser wavelengths: excitation at 488 nm and emission at 505–530 nm; excitation at 543 nm and emission at 560–615 nm.
HEK293 cells were co-transfected with FLAG-tagged α1A – AR and GFP- tagged β-arrestin-1 (left panels) or β-arrestin-2 (right panels). […] Cells were then fixed, permeabilized, stained with Alexa Fluor-568 conjugated anti-FLAG antibodies, and analyzed employing confocal microscopy.

T1 sequence (P07550 whole entry): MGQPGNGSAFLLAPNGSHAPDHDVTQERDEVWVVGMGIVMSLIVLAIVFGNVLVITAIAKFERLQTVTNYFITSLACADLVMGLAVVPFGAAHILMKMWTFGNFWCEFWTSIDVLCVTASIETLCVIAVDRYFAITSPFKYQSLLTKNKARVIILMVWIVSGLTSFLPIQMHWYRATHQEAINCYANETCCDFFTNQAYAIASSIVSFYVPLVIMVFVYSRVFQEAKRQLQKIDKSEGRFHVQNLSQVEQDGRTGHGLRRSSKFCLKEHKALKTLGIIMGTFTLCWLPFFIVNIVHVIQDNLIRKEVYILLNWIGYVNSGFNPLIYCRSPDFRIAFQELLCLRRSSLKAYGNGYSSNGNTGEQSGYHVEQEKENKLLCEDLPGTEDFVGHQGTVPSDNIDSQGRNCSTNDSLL

Compound: CS(=O)(=O)Nc1c(O)ccc2c1CCCC2C1=NCCN1 (stereo not shown) [A-61603]
- EC50 IP (HEK293/EBNA cells; HEK293/EBNA untransduced): BQL
- IP formation (HEK293/EBNA cells; untransduced cells, data not shown): not detectable
- EC50 cAMP (β2-AR [1]): BQL
- EC50 p-ERK (β2-AR [2]): BQL
- Ki (β2-AR [3]): 24 µM
- EC50 (β2-AR [4]): 0.003 µM
- cellular concentration of inositol phosphates IP1, IP2 and IP3 (α1A-AR [5]): concentration-dependent increases
- times more potent at inducing p-ERK formation than Ca2+ mobilization (α1A-AR [6]): ~4 times
- cellular levels of inositol phosphates IP1, IP2 and IP3 (α1A-AR [7]): concentration-dependent increases
- translocation of β-arrestin-1 / β-arrestin-2 (α1A-AR [8]): did not induce significant translocation

From paper PMC4301629 (PLoS ONE, 2015)
